Key:
human recombinant MAGL = human recombinant MAGL (Homo sapiens (Human), UniProt Q99685); assay: In vitro inhibition of human recombinant MAGL activity (Cayman inhibitor screening kit, 4-nitrophenylacetate hydrolysis); assay type: biochemical; settings: human recombinant MAGL; read-out: Inhibition on MAGL activity (IC50)
Description: The inhibitory effect of the synthetic chemicals on activity of human recombinant MAGL was studied using commercial inhibitor screening kit (Cayman Chemical). […] The absorbance of the yellow product can be analyzed using the plate reader. […]

human recombinant FAAH = human recombinant FAAH (Homo sapiens (Human), UniProt O00519); assay: In vitro inhibition of human recombinant FAAH activity (Cayman FAAH inhibitor screening kit, AMC arachidonoyl amide hydrolysis); assay type: biochemical
Description: In brief, FAAH hydrolyzes AMC arachidonoyl amide resulting in the release of the fluorescent product, while the inhibitor will inhibit the FAAH activity and thus reduce the fluorescent signal.

human recombinant FAAH, sequence (O00519 whole entry): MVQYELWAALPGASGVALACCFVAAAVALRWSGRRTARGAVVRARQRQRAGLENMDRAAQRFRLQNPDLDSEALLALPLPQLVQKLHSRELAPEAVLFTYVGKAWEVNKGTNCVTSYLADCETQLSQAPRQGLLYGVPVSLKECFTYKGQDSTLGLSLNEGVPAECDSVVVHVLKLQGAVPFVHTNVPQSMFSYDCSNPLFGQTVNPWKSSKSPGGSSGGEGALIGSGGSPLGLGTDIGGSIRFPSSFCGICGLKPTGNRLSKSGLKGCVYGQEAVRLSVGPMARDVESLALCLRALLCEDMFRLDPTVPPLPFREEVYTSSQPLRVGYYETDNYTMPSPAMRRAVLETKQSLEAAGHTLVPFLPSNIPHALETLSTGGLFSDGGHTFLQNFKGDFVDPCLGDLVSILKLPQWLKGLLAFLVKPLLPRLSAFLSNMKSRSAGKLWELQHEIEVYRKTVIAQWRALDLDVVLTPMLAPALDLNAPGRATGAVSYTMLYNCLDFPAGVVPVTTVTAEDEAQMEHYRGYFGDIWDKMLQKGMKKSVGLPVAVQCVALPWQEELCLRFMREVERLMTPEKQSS
human recombinant MAGL, sequence (Q99685 whole entry): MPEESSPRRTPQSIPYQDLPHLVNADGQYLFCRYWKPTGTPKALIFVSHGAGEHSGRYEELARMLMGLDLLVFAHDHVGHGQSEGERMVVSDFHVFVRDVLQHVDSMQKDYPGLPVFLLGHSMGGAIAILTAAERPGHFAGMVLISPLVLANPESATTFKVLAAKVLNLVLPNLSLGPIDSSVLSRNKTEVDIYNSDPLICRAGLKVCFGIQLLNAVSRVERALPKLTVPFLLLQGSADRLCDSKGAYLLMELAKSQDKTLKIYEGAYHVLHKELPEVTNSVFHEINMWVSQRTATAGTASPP

Compound: CN(CCOC(c1ccc2c(c1)COCO2)c1ccc2c(c1)COCO2)C(=O)n1nnc2ccc(C#N)cc21 [Example 55, N-(2-(bis(4H-benzo[d][1,3]dioxin-6-yl)methoxy)ethyl)-6-cyano-N-methyl-1H-benzo[d][1,2,3]triazole-1-carboxamide]
- IC50 (human recombinant MAGL): 1 to 10 nM
- IC50 (human recombinant FAAH): 1000 to 10000 nM

Compound: N#Cc1ccc2nnn(C(=O)N3CCC(OC(c4ccc5c(c4)COCO5)c4ccc5c(c4)COCO5)CC3)c2c1 [Example 56, 1-(4-(bis(4H-benzo[d][1,3]dioxin-6-yl)methoxy)piperidine-1-carbonyl)-1H-benzo[d][1,2,3]triazole-6-carbonitrile]
- IC50 (human recombinant MAGL): 1 to 10 nM
- IC50 (human recombinant FAAH): > 10000 nM

Compound: N#Cc1ccc2c(c1)nnn2C(=O)N1CCC(OC(c2ccc3c(c2)COCO3)c2ccc3c(c2)COCO3)CC1 [Example 57, 1-(4-(bis(4H-benzo[d][1,3]dioxin-6-yl)methoxy)piperidine-1-carbonyl)-1H-benzo[d][1,2,3]triazole-5-carbonitrile]
- IC50 (human recombinant MAGL): 1 to 10 nM
- IC50 (human recombinant FAAH): 100 to 1000 nM

Compound: N#Cc1ccc2nnn(C(=O)N3CC4(CC(OC(c5ccc6c(c5)COCO6)c5ccc6c(c5)COCO6)C4)C3)c2c1 [Example 59, 1-(6-(bis(4H-benzo[d][1,3]dioxin-6-yl)methoxy)-2-azaspiro[3.3]heptane-2-carbonyl)-1H-benzo[d][1,2,3]triazole-6-carbonitrile]
- IC50 (human recombinant MAGL): 10 to 100 nM
- IC50 (human recombinant FAAH): ~10000 nM

Compound: N#Cc1ccc2c(c1)nnn2C(=O)N1CC2(CC(OC(c3ccc4c(c3)COCO4)c3ccc4c(c3)COCO4)C2)C1 [Example 60, 1-(6-(bis(4H-benzo[d][1,3]dioxin-6-yl)methoxy)-2-azaspiro[3.3]heptane-2-carbonyl)-1H-benzo[d][1,2,3]triazole-5-carbonitrile]
- IC50 (human recombinant MAGL): 10 to 100 nM
- IC50 (human recombinant FAAH): < 10000 nM

Compound: N#Cc1ccc2nnn(C(=O)N3CCC(N(c4ccc(F)cc4)c4ccc(F)cc4)CC3)c2c1 [Example 61, 1-(4-(bis(4-fluorophenyl)amino)piperidine-1-carbonyl)-1H-benzo[d][1,2,3]triazole-6-carbonitrile]
- IC50 (human recombinant MAGL): 1 to 10 nM
- IC50 (human recombinant FAAH): 100 to 1000 nM

Compound: N#Cc1ccc2nnn(C(=O)N3CCC(N(c4ccc(F)cc4)c4ccc5c(c4)OCO5)CC3)c2c1 [Example 63, 1-(4-(benzo[d][1,3]dioxol-5-yl(4-fluorophenyl)amino)piperidine-1-carbonyl)-1H-benzo[d][1,2,3]triazole-6-carbonitrile]
- IC50 (human recombinant MAGL): 1 to 10 nM
- IC50 (human recombinant FAAH): 100 to 1000 nM

Compound: N#Cc1ccc2c(c1)nnn2C(=O)N1CCC(N(c2ccc(F)cc2)c2ccc3c(c2)OCO3)CC1 [Example 64, 1-(4-(benzo[d][1,3]dioxol-5-yl(4-fluorophenyl)amino)piperidine-1-carbonyl)-1H-benzo[d][1,2,3]triazole-5-carbonitrile]
- IC50 (human recombinant MAGL): 1 to 10 nM
- IC50 (human recombinant FAAH): 10 to 100 nM

Compound: COc1ccc(N(c2ccc(F)cc2)C2CCN(C(=O)n3nnc4ccc(C#N)cc43)CC2)cc1 [Example 65, 1-(4-((4-fluorophenyl)(4-methoxyphenyl)amino)piperidine-1-carbonyl)-1H-benzo[d][1,2,3]triazole-6-carbonitrile]
- IC50 (human recombinant MAGL): 1 to 10 nM
- IC50 (human recombinant FAAH): 100 to 1000 nM

Compound: COc1ccc(N(c2ccc(F)cc2)C2CCN(C(=O)n3nnc4cc(C#N)ccc43)CC2)cc1 [Example 66, 1-(4-((4-fluorophenyl)(4-methoxyphenyl)amino)piperidine-1-carbonyl)-1H-benzo[d][1,2,3]triazole-5-carbonitrile]
- IC50 (human recombinant MAGL): 1 to 10 nM
- IC50 (human recombinant FAAH): 100 to 1000 nM

Compound: N#Cc1ccc2nnn(C(=O)N3CCC(N(c4ccc5c(c4)OCO5)c4ccc5c(c4)OCO5)CC3)c2c1 [Example 67, 1-(4-(bis(benzo[d][1,3]dioxol-5-yl)amino)piperidine-1-carbonyl)-1H-benzo[d][1,2,3]triazole-6-carbonitrile]
- IC50 (human recombinant MAGL): 1 to 10 nM
- IC50 (human recombinant FAAH): 100 to 1000 nM

Compound: N#Cc1ccc2c(c1)nnn2C(=O)N1CCC(N(c2ccc3c(c2)OCO3)c2ccc3c(c2)OCO3)CC1 [Example 68, 1-(4-(bis(benzo[d][1,3]dioxol-5-yl)amino)piperidine-1-carbonyl)-1H-benzo[d][1,2,3]triazole-5-carbonitrile]
- IC50 (human recombinant MAGL): 1 to 10 nM
- IC50 (human recombinant FAAH): 100 to 1000 nM

Compound: N#Cc1ccc2nnn(C(=O)N3CCC(N(c4ccc(C(F)(F)F)cc4)c4ccc5c(c4)OCO5)CC3)c2c1 [Example 69, 1-(4-(benzo[d][1,3]dioxol-5-yl(4-(trifluoromethyl)phenyl)amino)piperidine-1-carbonyl)-1H-benzo[d][1,2,3]triazole-6-carbonitrile]
- IC50 (human recombinant MAGL): 1 to 10 nM
- IC50 (human recombinant FAAH): 100 to 1000 nM

Compound: N#Cc1ccc2c(c1)nnn2C(=O)N1CCC(N(c2ccc(C(F)(F)F)cc2)c2ccc3c(c2)OCO3)CC1 [Example 70, 1-(4-(benzo[d][1,3]dioxol-5-yl(4-(trifluoromethyl)phenyl)amino)piperidine-1-carbonyl)-1H-benzo[d][1,2,3]triazole-5-carbonitrile]
- IC50 (human recombinant MAGL): 1 to 10 nM
- IC50 (human recombinant FAAH): 100 to 1000 nM

Compound: N#Cc1ncn(C(=O)N2CCC(N(c3ccc(C(F)(F)F)cc3)c3ccc4c(c3)OCO4)CC2)n1 [Example 71, 1-(4-(benzo[d][1,3]dioxol-5-yl(4-(trifluoromethyl)phenyl)amino)piperidine-1-carbonyl)-1H-1,2,4-triazole-3-carbonitrile]
- IC50 (human recombinant MAGL): 1 to 10 nM
- IC50 (human recombinant FAAH): 100 to 1000 nM

Compound: COc1ccc(N(c2ccc3c(c2)OCO3)C2CCN(C(=O)n3nnc4ccc(C#N)cc43)CC2)cc1 [Example 72, 1-(4-(benzo[d][1,3]dioxol-5-yl(4-methoxyphenyl)amino)piperidine-1-carbonyl)-1H-benzo[d][1,2,3]triazole-6-carbonitrile]
- IC50 (human recombinant MAGL): 1 to 10 nM
- IC50 (human recombinant FAAH): 100 to 1000 nM

Compound: COc1ccc(N(c2ccc3c(c2)OCO3)C2CCN(C(=O)n3nnc4cc(C#N)ccc43)CC2)cc1 [Example 73, 1-(4-(benzo[d][1,3]dioxol-5-yl(4-methoxyphenyl)amino)piperidine-1-carbonyl)-1H-benzo[d][1,2,3]triazole-5-carbonitrile]
- IC50 (human recombinant MAGL): 1 to 10 nM
- IC50 (human recombinant FAAH): 100 to 1000 nM

Compound: N#Cc1ccc2nnn(C(=O)N3CCC(N(c4cccnc4)c4ccc5c(c4)OCO5)CC3)c2c1 [Example 74, 1-(4-(benzo[d][1,3]dioxol-5-yl(pyridin-3-yl)amino)piperidine-1-carbonyl)-1H-benzo[d][1,2,3]triazole-6-carbonitrile]
- IC50 (human recombinant MAGL): 1 to 10 nM
- IC50 (human recombinant FAAH): 100 to 1000 nM

Compound: N#Cc1ccc2c(c1)nnn2C(=O)N1CCC(N(c2cccnc2)c2ccc3c(c2)OCO3)CC1 [Example 75, 1-(4-(benzo[d][1,3]dioxol-5-yl(pyridin-3-yl)amino)piperidine-1-carbonyl)-1H-benzo[d][1,2,3]triazole-5-carbonitrile]
- IC50 (human recombinant MAGL): 1 to 10 nM
- IC50 (human recombinant FAAH): 100 to 1000 nM

Compound: C=COc1ccc(N(c2ccc(F)cc2)C2CCN(C(=O)n3nnc4ccc(C#N)cc43)CC2)cc1 [Example 76, 1-(4-((4-fluorophenyl)(4-(vinyloxy)phenyl)amino)piperidine-1-carbonyl)-1H-benzo[d][1,2,3]triazole-6-carbonitrile]
- IC50 (human recombinant MAGL): 1 to 10 nM
- IC50 (human recombinant FAAH): 100 to 1000 nM

Compound: C=COc1ccc(N(c2ccc(F)cc2)C2CCN(C(=O)n3nnc4cc(C#N)ccc43)CC2)cc1 [Example 77, 1-(4-((4-fluorophenyl)(4-(vinyloxy)phenyl)amino)piperidine-1-carbonyl)-1H-benzo[d][1,2,3]triazole-5-carbonitrile]
- IC50 (human recombinant MAGL): 1 to 10 nM
- IC50 (human recombinant FAAH): 100 to 1000 nM

From patent US12378231B2, “Small molecules as monoacylglycerol lipase (MAGL) inhibitors, compositions and use thereof” (APOGEE PHARMACEUTICALS, INC., priority 2023, dated 2025)
